Laboratory results as given in EPA's ToxValDB 9.5.

Test system: Mus musculus
Conditions: oral, gavage, M; for LOEL / NOEL: duration: 60 days
[1] = short-term, duration: 28 days, B6C3F1, IgM antibody-producing cells (SRBC)
[2] = short-term, duration: 28 days, B6C3F1, spleen: Splenic NK cell activity
[3] = short-term, duration: 28 days, B6C3F1, spleen: splenic CD4-/CD8- + spleen: splenic CD4-/CD8+ + spleen: splenic CD4+/CD8- + spleen: splenic CD4+/CD8+
[4] = subchronic, duration: 30 days, C57BL/6, spleen: spleen: relative weight
[5] = subchronic, C57BL/6, % of sub G1 population (splenocytes) + spleen: apoptotic cells (splenocytes) + spleen: viability in murine splenocytes + thymus: apoptotic …
[6] = subchronic, C57BL/6, % of sub G1 population (thymocytes) + body weight change + spleen: necrotic cells (splenocytes) + spleen: spleen cellularity + spleen: …
[7] = subchronic, C57BL/6, IgM antibody titer (SRBC) + spleen: IL-4 levels
[8] = subchronic, C57BL/6, blood serum: IL-1 beta (+LPS in vivo) + blood serum: IL-1 beta levels + blood serum: IL-6 levels + peritoneal cavity: IL-1 beta levels (+LPS…
[9] = subchronic, C57BL/6, blood serum: IL-6 levels (+LPS in vivo) + blood serum: TNF-alpha levels (+LPS in vivo) + peritoneal cavity: IL-6 levels (+LPS in vivo) + …
[10] = subchronic, C57BL/6, body weight change + food intake from day 60 to 61 + IgE antibody titer (SRBC) + IgG antibody titer (SRBC) + IgG1 antibody titer (SRBC) + …
[11] = subchronic, C57BL/6, body weight change + peritoneal cavity: IL-6 levels + peritoneal cavity: IL-6 levels (+LPS in vitro) + peritoneal cavity: TNF-alpha levels…
[12] = subchronic, C57BL/6, liver: liver index
[13] = subchronic, C57BL/6, peritoneal cavity: IL-1 beta levels
[14] = subchronic, C57BL/6, serum corticosterone + spleen: lymphocyte proliferation (LPS) + spleen: spleen B220+ Cells + spleen: spleen CD8+ cells + thymus: thymus CD4…
[15] = subchronic, C57BL/6, spleen: lymphocyte proliferation (ConA) + thymus: thymus DN (CD4-/CD8-)

O=S(=O)(O)C(F)(F)C(F)(F)C(F)(F)C(F)(F)C(F)(F)C(F)(F)C(F)(F)C(F)(F)F [Perfluorooctanesulfonic acid]
LOEL (TAD) [1]: 0.05 mg/kg-day
NOEL (TAD) [1]: 0.005 mg/kg-day
NOEL (TAD) (short-term, duration: 28 days, B6C3F1, serum lysozyme activity + spleen: lymphocyte proliferation (ConA) + spleen: lymphocyte proliferation (LPS) + spleen: spleen cellularity + …): 5 mg/kg-day
LOEL (TAD) [2]: 0.5 mg/kg-day
NOEL (TAD) [2]: 0.1 mg/kg-day
LOEL (TAD) [3]: 0.1 mg/kg-day
NOEL (TAD) [3]: 0.05 mg/kg-day
LOEL (TAD) [4]: 300 mg/kg-day
NOEL (TAD) [4]: 150 mg/kg-day
LOEL [5]: 0.0833 mg/kg-day
NOEL [5]: 0.0167 mg/kg-day
LOEL [6]: 0.833 mg/kg-day
NOEL [6]: 0.0833 mg/kg-day
NOEL (subchronic, C57BL/6, DTH response + IgG2a antibody titer (SRBC) + kidney: kidney index + serum corticosterone): 0.833 mg/kg-day
LOEL [7]: 0.0833 mg/kg-day
NOEL [7]: 0.0167 mg/kg-day
LOEL (subchronic, C57BL/6, IgM antibody-secreting cells (SRBC) + Splenic NK cell activity): 0.0833 mg/kg-day
NOEL (subchronic, C57BL/6, IgM antibody-secreting cells (SRBC) + spleen: spleen DP (CD4+/CD8+) + Splenic NK cell activity): 0.00833 mg/kg-day
LOEL [8]: 0.833 mg/kg-day
NOEL [8]: 0.417 mg/kg-day
LOEL [9]: 2.08 mg/kg-day
NOEL [9]: 0.833 mg/kg-day
NOEL (subchronic, C57BL/6, blood serum: TNF-alpha levels): 2.08 mg/kg-day
LOEL [10]: 0.833 mg/kg-day
NOEL [10]: 0.417 mg/kg-day
LOEL [11]: 0.417 mg/kg-day
NOEL [11]: 0.0833 mg/kg-day
LOEL [12]: 0.417 mg/kg-day
NOEL [12]: 0.0833 mg/kg-day
LOEL (subchronic, C57BL/6, peritoneal cavity macrophages): 0.0167 mg/kg-day
NOEL (subchronic, C57BL/6, peritoneal cavity macrophages + spleen: IL-1 beta mRNA): 0.0083 mg/kg-day
LOEL [13]: 0.0833 mg/kg-day
NOEL [13]: 0.0167 mg/kg-day
LOEL [14]: 0.833 mg/kg-day
NOEL [14]: 0.417 mg/kg-day
LOEL [15]: 2.08 mg/kg-day
NOEL [15]: 0.833 mg/kg-day
LOEL (subchronic, C57BL/6, spleen: spleen CD4+ cells + spleen: spleen cellularity + spleen: spleen DN (CD4-/CD8-) + spleen: spleen DP (CD4+/CD8+) + spleen: spleen: …): 0.417 mg/kg-day
NOEL (subchronic, C57BL/6, spleen: spleen CD4+ cells + spleen: spleen cellularity + spleen: spleen DN (CD4-/CD8-) + spleen: spleen: relative weight + thymus: thymus …): 0.0833 mg/kg-day
